Experimental data published in paper PMC7851395 (British Journal of Cancer, 2020).

Key:
[1] = Pharmacokinetic study in rat plasma (LC-MS/MS); type: in vivo, S.D. rats
Experimental: For the pharmacokinetic study, female S.D. rats (body weight 200 ± 10 g) have fasted overnight with free access to water before the experiment. Twelve rats were randomly divided into four groups. The time schedule included eight timepoints, and three S.D. rats were sampled at each time-point. Bufalin and acetyl-bufalin were administered intravenously and intraperitoneally to the rats at the dose of 0.25 mg/kg and 2 mg/kg, respectively. The animals had free access to water during the experiment. Blood samples were collected from the retro-orbital plexus of each rat at 0.083, 0.25, 0.5, 1, 2, 4, 6, 8, 12, 24 h after administration. Plasma was separated from the blood after centrifugation at 6000×g for 10 min and frozen at −20 °C until analysis. In total, 20 µL of standard samples in duplicate, quality control samples in duplicate and rat plasma samples were mixed with 60 µL of ethyl acetate containing IS (200 ng/mL of tolbutamide, 50 ng/mL of propranolol and 500 ng/mL of Dic) in EP tubes. After the mixture was vortexed for 1 min, then centrifuged for 10 min (13,000 rpm, 4 °C), transferred 50 µL supernatant to a 96-well plate with 150 µL purred water, shacked for 10 min and finally injected 5 µL into liquid chromatographic-tandem mass spectrometry (LC-MS/MS) system for analysis.

A549 cells = test: MTT cytotoxicity assay, A549 cells; type: cell-based; conditions: Homo sapiens; A549 cells, 48 h, MTT; read-out: IC50
Experimental: (§1) The cytotoxicity and viability of human NSCLC cells and normal cells were determined by MTT assay. MTT assay was performed as described previously.[22] MTT assay was used to determine the cell cytotoxicity and viability in human NSCLC cells. Cells (5 × 10^3 cells/well) were plated in 96-well plates and attached overnight. After the proper treatment, the MTT solution was added at 25 µL/well and incubated at 37 °C for 4 h. The formazan crystals were dissolved in 150 µL of DMSO, and the optical density (OD) was measured using a Microplate Reader at 490 nm. The cell viability was calculated by the following formula: viability = (average OD values of treatment wells/average OD values of vehicle control wells) × 100%. And half-maximal inhibitory concentration (IC50) values were determined by GraphPad Pro Prism 7.0.

H460 xenograft = type: in vivo, BALB/c nude mice; conditions: 2 mg/kg i.p. every other day
Experimental: All animal procedures were done accordingly with the Institutional laboratory animal research guidelines and were approved by Wenzhou Medical University Animal Policy and Welfare Committee. Female athymic BALB/c nude mice (5–6 weeks old) and immune-defective non-obese […] diabetic severe combined immunodeficiency (NOD-SCID) mice (6–8 weeks old) were purchased from the Vital River Experimental Animal Center (Beijing, China). All the mice were housed under 12 h light–dark cycles at 25 °C and free for water and diet. For the xenograft model, the H460 cells (5 × 10^6 cells were mixed with an equal volume of PBS and Matrigel in 100 μL) were implanted on the hind flank of nude mice. Once tumour volumes reached ~50 mm^3, 24 mice were divided into four experimental groups (six mice per group, no differences in mean body weights or tumour volumes between the groups) and intraperitoneal injection with 2 mg/kg SNS-032 (a recognised CDK9 inhibitor), bufalin and acetyl-bufalin every other day. Tumour volume was measured as V = (L × W × W)/2, in which L and W represent the length and width of tumour. Animals were killed by cervical dislocation once the tumour volume reached 1000 mm^3. The tumours, hearts, livers, kidneys and lungs were removed for use in the histology and western blot analysis.

[2] = system: human umbilical vein endothelial cell HUVEC; test: MTT cytotoxicity assay, normal HUVEC cells; type: cell-based
Experimental: as §1

NIH mice = test: Acute toxicity test; type: in vivo
Experimental: In the acute toxicity test, 30 NIH mice (female, 8 weeks old) were randomly divided into three groups (n = 10), including vehicle group, bufalin group (30 mg/kg) and acetyl-bufalin group (30 mg/kg). The three groups received intraperitoneal injection only on the first day. All the mice were housed under 12 h light–dark cycles at 25 °C and free for water and diet. […] All the mice were sacrificed by cervical dislocation.

[3] = system: patient-derived human NSCLC xenografts; test: Patient-derived NSCLC xenograft (PDX) model; type: in vivo, mice; conditions: for average tumour volume: 14 days, vehicle 931.90 mm^3
Experimental: For the patient-derived human NSCLC xenografts (PDXs) animal model, four pairs of lung cancer samples were obtained from patients who had undergone surgical treatment of lung cancer in the First Affiliated Hospital of Wenzhou Medical University. Fresh tumour tissue was sterilely incised into ~3-mm^3 pieces and subcutaneously injected into immunodeficient NOD/SCID mice within 30 min. The remaining tumour tissues were stored at −80 °C. When the tumours have successfully engrafted, tumour samples were removed and passaged into the third generation of nude mice for the following studies. All 18 mice were allocated into three groups (n = 6) and received i.p. injection of acetyl-bufalin (1 mg/kg/2 days and 2 mg/kg/2 days) as compared with mice injected with PBS (vehicle group) every other day. Tumour volume was measured as V = (L × W × W)/2, in which L and W represent the length and width of tumour. After 14 days, all the mice were killed by cervical dislocation. The tumours, hearts, livers, kidneys and lungs were removed for use in the histology and western blot analysis.

[4] = system: P-CDK9, CDK9, P-STAT3 and S2 RNAPII; test: Western blot of CDK9/STAT3 pathway proteins; type: cell-based, human; conditions: H460 and PC-9 cells, 12 h; acetyl-bufalin 25-200 nM, SNS-032 200 nM
Experimental: Tissue proteins were extracted with tissue protein lysate buffer. Cells were grown to different densities and extracted with cell protein lysate buffer. The protein was mixed with loading buffer and boiled for 10 min at 100 °C, then loaded and separated by 10% or 12% sodium dodecyl sulfate-polyacrylamide gel (SDS-PAGE) and then transferred onto a PVDF membrane blocking with 5% skim milk. The blots were incubated overnight with specific primary antibodies at 4 °C. On the second day, after washing with TBST (a mixture of tris-buffered saline (TBS) and Tween 20) three times, the […] membranes were incubated with horseradish peroxidase-conjugated secondary antibodies for 1 h. The immunoreactive bands were visualised with enhanced chemiluminescence reagent.

PC-9 cells = test: MTT cytotoxicity assay, PC-9 cells; type: cell-based; conditions: Homo sapiens, PC-9, 48 h, PC-9 cells, 48 h, MTT; read-out: IC50
Experimental: as §1

SMILES: CC(=O)OC1CCC2(C)C(CCC3C2CCC2(C)C(c4ccc(=O)oc4)CCC32O)C1 (stereo not drawn) [acetyl-bufalin]
- elimination in blood ([1]; 0.25 mg/kg i.v. and 2 mg/kg i.p.): much slower than bufalin
- Cmax ([1]; acetyl-bufalin and bufalin formed from it, compared with bufalin dosing): smaller
- IC50 (A549 cells): 0.0281 µM
- gross toxicities on hearts, livers, kidneys or lungs (H460 xenograft; H&E staining): no gross toxicities
- tumour growth (weight and volume) (H460 xenograft; compared with vehicle): significantly inhibited tumour growth
- comparison of inhibitory effect between treatments (H460 xenograft; versus SNS-032 and bufalin): best inhibitory effect
- cytotoxic effect on normal cells [2]: low toxicity
- weight of the remaining mice (NIH mice; 30 mg/kg single i.p., 14 days, compared with vehicle): stable
- mortality (mice died) (NIH mice; 30 mg/kg single intraperitoneal injection, observed 14 days, n = 10): 2/10
- average tumour volume ([3]; 1 mg/kg per 2 days i.p.): 544.43 mm^3
- average tumour volume ([3]; 2 mg/kg per 2 days i.p.): 256.29 mm^3
- body weight of the mice ([3]; 1 and 2 mg/kg per 2 days i.p.): stable
- gross toxicities on heart, liver, kidney and lung ([3]; H&E staining, compared with vehicle): no gross toxicities
- P-CDK9, CDK9, P-STAT3 and S2 RNAPII expressions [4]: significantly dose-dependently decreased
- IC50 (PC-9 cells): 0.064 µM
